Laboratory results taken from the supplement of paper PMC10331698.
± gives the standard deviation of the averaged measurements.

Key:
Assay in all cases: level (log10 ratio to DMSO vehicle control); higher = higher biomarker level / cell amount than vehicle control
[1] = compound: C=C(C)C(=O)OCCC(F)(F)C(F)(F)C(F)(F)C(F)(F)C(F)(F)C(F)(F)F [6:2 Fluorotelomer methacrylate]; conditions: in DMSO
Procedure: (§1)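 BioMAP Diversity Plus panel of 12 human primary cell co-culture systems (3C, 4H, LPS, SAg, BT, BF4T, BE3C, CASM3C, HDF3CGF, KF3CT, MyoF, Mphg). Compounds were added 1 h before stimulation and left for 24 h (MyoF 48 h; BT 72 h for soluble read-outs or 6 d for IgG). Biomarkers were read by ELISA, cytotoxicity by SRB, PBMC viability and proliferation by Alamar Blue. Each well value was divided by the mean of 8 DMSO control wells on the same plate and log10 transformed; duplicate blinded samples were tested at 4 concentrations.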

[2] = compound: C=CC(=O)OCC(F)(F)C(F)(F)C(F)(F)COC(=O)C=C [1H,1H,5H,5H-Perfluoro-1,5-pentanediol diacrylate]; conditions: 6700 nM; in DMSO
Procedure: as §1

[3] = compound: COC(=O)C(F)(F)C(F)(F)OC(F)(C(F)(F)F)C(F)(F)OC(F)=C(F)F [Methyl perfluoro(3-(1-ethenyloxypropan-2-yloxy)propanoate)]; conditions: in DMSO
Procedure: as §1

[4] = compound: FC(F)(F)C(F)(F)C(F)(F)C(F)(F)C(F)(F)C(F)(F)C(F)(F)I [1-Iodopentadecafluoroheptane]; conditions: in DMSO
Procedure: as §1

[5] = compound: FC(F)(F)C(F)(F)C(F)(F)C(F)(F)C(F)(F)C(F)(F)CC1CO1 [3-(Perfluorohexyl)-1,2-epoxypropane]; conditions: in DMSO
Procedure: as §1

[6] = compound: FC(F)(F)C(F)(F)C(F)(F)CC1CO1 [1H,1H-Heptafluorobutyl epoxide]; conditions: in DMSO
Procedure: as §1

Heptafluorobutyl iodide = compound: FC(F)(F)C(F)(F)C(F)(F)CI [Heptafluorobutyl iodide]; conditions: in DMSO
Procedure: as §1

[7] = compound: FC(F)(F)C(F)(F)CNCC(F)(F)C(F)(F)F [Bis(1H,1H-perfluoropropyl)amine]; conditions: in DMSO
Procedure: as §1

Octafluoroadipamide = compound: NC(=O)C(F)(F)C(F)(F)C(F)(F)C(F)(F)C(N)=O [Octafluoroadipamide]; conditions: in DMSO
Procedure: as §1

Nonafluoropentanamide = compound: NC(=O)C(F)(F)C(F)(F)C(F)(F)C(F)(F)F [Nonafluoropentanamide]; conditions: in DMSO
Procedure: as §1

[8] = compound: NC(=O)C(F)(F)C(F)(F)C(F)(F)C(F)F; conditions: in DMSO
Procedure: as §1

[9] = compound: NS(=O)(=O)C(F)(F)C(F)(F)C(F)(F)C(F)(F)C(F)(F)C(F)(F)F [Perfluorohexanesulfonamide]; conditions: in DMSO
Procedure: as §1

[10] = compound: O=C(O)C(F)(F)C(F)(F)C(F)(F)C(F)(F)C(F)(F)C(F)(F)C(F)(F)C(F)(F)C(F)(F)C(F)F [11-H-Perfluoroundecanoic acid]; conditions: in DMSO
Procedure: as §1

[11] = compound: O=C(O)C=CC(F)(C(F)(F)F)C(F)(F)F [3-(Perfluoroisopropyl)-2-propenoic acid]; conditions: in DMSO
Procedure: as §1

[12] = compound: O=S(=O)(Cl)C(F)(F)C(F)(F)C(F)(F)C(F)(F)C(F)(F)C(F)(F)C(F)(F)C(F)(F)F [Perfluoro-1-octanesulfonyl chloride]; conditions: in DMSO
Procedure: as §1

[13] = compound: O=S(=O)(F)C(F)(F)C(F)(F)C(F)(F)C(F)(F)C(F)(F)C(F)(F)C(F)(F)C(F)(F)F [Perfluorooctanesulfonyl fluoride]; conditions: in DMSO
Procedure: as §1

[14] = compound: O=S(=O)(O)C(F)(F)C(F)(F)C(F)(F)C(F)(F)C(F)(F)C(F)(F)C(F)(F)C(F)(F)C(F)(F)C(F)(F)F [Sodium perfluorodecanesulfonate]; conditions: in DMSO
Procedure: as §1

[15] = compound: O=S(=O)(O)CCC(F)(F)C(F)(F)C(F)(F)C(F)(F)C(F)(F)C(F)(F)F [6:2 Fluorotelomer sulfonic acid]; conditions: in DMSO
Procedure: as §1

Hexafluoroamylene glycol = compound: OCC(F)(F)C(F)(F)C(F)(F)CO [Hexafluoroamylene glycol]; conditions: in DMSO
Procedure: as §1

Test System: BE3C:CXCL11/I-TAC
- level (log10) ([1]; 6700 nM): 0.0125 ± 0.023
- level (log10) ([1]; 20000 nM): 0 ± 0.014
- level (log10) ([1]; 60000 nM): 0.0155 ± 0.028
- level (log10) [2]: 0.0085 ± 0.011
- level (log10) ([3]; 6700 nM): -0.038 ± 0.024
- level (log10) ([3]; 20000 nM): -0.192 ± 0.025
- level (log10) ([4]; 6700 nM): 0.0005 ± 0.015
- level (log10) ([4]; 20000 nM): 0.004 ± 0.013
- level (log10) ([5]; 6700 nM): -0.0115 ± 0.011
- level (log10) ([5]; 20000 nM): -0.02 ± 0.011
- level (log10) ([5]; 60000 nM): -0.009 ± 0.014
- level (log10) ([6]; 6700 nM): 0.0015 ± 0.00071
- level (log10) ([6]; 20000 nM): 0.0115 ± 0.005
- level (log10) ([6]; 60000 nM): 0.013 ± 0.0014
- level (log10) (Heptafluorobutyl iodide; 6700 nM): 0.005 ± 0.048
- level (log10) (Heptafluorobutyl iodide; 20000 nM): -0.0175 ± 0.005
- level (log10) (Heptafluorobutyl iodide; 60000 nM): 0.0245 ± 0.025
- level (log10) ([7]; 6700 nM): -0.026 ± 0.013
- level (log10) ([7]; 20000 nM): -0.0135 ± 0.016
- level (log10) ([7]; 60000 nM): 0.008 ± 0.016
- level (log10) (Octafluoroadipamide; 6700 nM): -0.0085 ± 0.0035
- level (log10) (Octafluoroadipamide; 20000 nM): -0.0155 ± 0.00071
- level (log10) (Octafluoroadipamide; 60000 nM): -0.014 ± 0.021
- level (log10) (Nonafluoropentanamide; 6700 nM): 0.012 ± 0.0099
- level (log10) (Nonafluoropentanamide; 20000 nM): 0.01 ± 0.017
- level (log10) (Nonafluoropentanamide; 60000 nM): 0.003 ± 0.027
- level (log10) ([8]; 6700 nM): 0.005 ± 0.0028
- level (log10) ([8]; 20000 nM): -0.002 ± 0.0042
- level (log10) ([8]; 60000 nM): 0.002 ± 0.0057
- level (log10) ([9]; 6700 nM): 0.0015 ± 0.052
- level (log10) ([9]; 20000 nM): -0.023 ± 0.035
- level (log10) ([9]; 60000 nM): -0.107 ± 0.067
- level (log10) ([10]; 6700 nM): -0.04 ± 0.0057
- level (log10) ([10]; 20000 nM): -0.826 ± 0.0085
- level (log10) ([11]; 6700 nM): -0.0175 ± 0.0078
- level (log10) ([11]; 20000 nM): -0.009 ± 0.0057
- level (log10) ([11]; 60000 nM): 0.005 ± 0.011
- level (log10) ([12]; 6700 nM): -0.012 ± 0.014
- level (log10) ([12]; 20000 nM): 0.002 ± 0.011
- level (log10) ([12]; 60000 nM): -0.598 ± 0.059
- level (log10) ([13]; 6700 nM): 0.005 ± 0.0014
- level (log10) ([13]; 20000 nM): -0.0005 ± 0.012
- level (log10) ([13]; 60000 nM): -0.006 ± 0.011
- level (log10) ([14]; 1500 nM): 0.0095 ± 0.005
- level (log10) ([14]; 4400 nM): 0.0075 ± 0.0064
- level (log10) ([14]; 13000 nM): 0.0185 ± 0.005
- level (log10) ([14]; 40000 nM): -0.0685 ± 0.036
- level (log10) ([15]; 6700 nM): 0.037 ± 0.028
- level (log10) ([15]; 20000 nM): 0.0585 ± 0.00071
- level (log10) ([15]; 60000 nM): 0.067 ± 0.018
- level (log10) (Hexafluoroamylene glycol; 6700 nM): 0.002 ± 0.021
- level (log10) (Hexafluoroamylene glycol; 20000 nM): 0.013 ± 0.045
- level (log10) (Hexafluoroamylene glycol; 60000 nM): 0.035 ± 0.018

Test System: BE3C:EGFR
- level (log10) ([1]; 6700 nM): 0.0045 ± 0.052
- level (log10) ([1]; 20000 nM): 0.0085 ± 0.043
- level (log10) ([1]; 60000 nM): 0.0135 ± 0.049
- level (log10) [2]: -0.01
- level (log10) ([3]; 6700 nM): -0.04 ± 0.014
- level (log10) ([3]; 20000 nM): -0.053 ± 0.031
- level (log10) ([4]; 6700 nM): 0.014 ± 0.0071
- level (log10) ([4]; 20000 nM): 0.0185 ± 0.026
- level (log10) ([5]; 6700 nM): -0.001 ± 0.0085
- level (log10) ([5]; 20000 nM): -0.0015 ± 0.0035
- level (log10) ([5]; 60000 nM): 0.007 ± 0.013
- level (log10) ([6]; 6700 nM): -0.0025 ± 0.0064
- level (log10) ([6]; 20000 nM): -0.0045 ± 0.0064
- level (log10) ([6]; 60000 nM): -0.018 ± 0.0042
- level (log10) (Heptafluorobutyl iodide; 6700 nM): -0.015 ± 0.017
- level (log10) (Heptafluorobutyl iodide; 20000 nM): -0.019 ± 0.0071
- level (log10) (Heptafluorobutyl iodide; 60000 nM): 0.0015 ± 0.005
- level (log10) ([7]; 6700 nM): -0.011 ± 0.014
- level (log10) ([7]; 20000 nM): -0.008 ± 0.0057
- level (log10) ([7]; 60000 nM): 0.0065 ± 0.021
- level (log10) (Octafluoroadipamide; 6700 nM): -0.019 ± 0.016
- level (log10) (Octafluoroadipamide; 20000 nM): -0.014 ± 0.0099
- level (log10) (Octafluoroadipamide; 60000 nM): 0.004 ± 0.04
- level (log10) (Nonafluoropentanamide; 6700 nM): 0.0025 ± 0.011
- level (log10) (Nonafluoropentanamide; 20000 nM): -0.0425 ± 0.029
- level (log10) (Nonafluoropentanamide; 60000 nM): -0.0175 ± 0.011
- level (log10) ([8]; 6700 nM): 0.0055 ± 0.019
- level (log10) ([8]; 20000 nM): 0.0065 ± 0.032
- level (log10) ([8]; 60000 nM): -0.008 ± 0.0099
- level (log10) ([9]; 6700 nM): 0.023 ± 0.0057
- level (log10) ([9]; 20000 nM): 0.0205 ± 0.033
- level (log10) ([9]; 60000 nM): 0.014 ± 0.017
- level (log10) ([10]; 6700 nM): -0.0125 ± 0.021
- level (log10) ([10]; 20000 nM): -0.12 ± 0.0057
- level (log10) ([11]; 6700 nM): 0.0005 ± 0.016
- level (log10) ([11]; 20000 nM): 0.0085 ± 0.00071
- level (log10) ([11]; 60000 nM): 0.004 ± 0.0014
- level (log10) ([12]; 6700 nM): -0.0135 ± 0.019
- level (log10) ([12]; 20000 nM): -0.0285 ± 0.00071
- level (log10) ([12]; 60000 nM): -0.121 ± 0.014
- level (log10) ([13]; 6700 nM): 0.0125 ± 0.0064
- level (log10) ([13]; 20000 nM): 0.017 ± 0.025
- level (log10) ([13]; 60000 nM): -0.0095 ± 0.012
- level (log10) ([14]; 1500 nM): 0.0185 ± 0.0035
- level (log10) ([14]; 4400 nM): 0.0015 ± 0.0064
- level (log10) ([14]; 13000 nM): -0.022 ± 0.014
- level (log10) ([14]; 40000 nM): -0.032 ± 0.027
- level (log10) ([15]; 6700 nM): -0.0075 ± 0.00071
- level (log10) ([15]; 20000 nM): -0.027 ± 0.0085
- level (log10) ([15]; 60000 nM): -0.0095 ± 0.0064
- level (log10) (Hexafluoroamylene glycol; 6700 nM): 0.0035 ± 0.005
- level (log10) (Hexafluoroamylene glycol; 20000 nM): -0.0115 ± 0.0078
- level (log10) (Hexafluoroamylene glycol; 60000 nM): 0.009 ± 0.0071
